In patent US10307413B2, “Tetrahydro- and dihydro-isoquinoline PRMT5 inhibitors and uses thereof” (Epizyme, Inc., priority 2013, dated 2019):

Key:
Z-138 cell line = test: Z-138 Proliferation Assay (Cell Titer Glo, 5 days); format: cell-based; conditions: Homo sapiens, 120 h; Z-138 cells, 5 days; read-out: Proliferation EC50
Excerpt: RPMI/Glutamax medium, penicillin-streptomycin, heat inactivated fetal bovine serum were purchased from Life Technologies, Grand Island, N.Y., USA. V-bottom polypropylene 384-well plates were purchased from Greiner Bio-One, Monroe, N.C., USA. Cell culture 384-well white opaque plates were purchased from Perkin Elmer, Waltham, Mass., USA. Cell-Titer Glo® was purchased from Promega Corporation, Madison, Wis., USA. SpectraMax M5 plate reader was purchased from Molecular Devices LLC, Sunnyvale, Calif., USA.
A compound source plate was prepared by performing triplicate nine-point 3-fold serial dilutions in DMSO, beginning at 10 mM (final top concentration of compound in the assay was 20 μM and the DMSO was 0.2%). A 100 nL aliquot from the compound stock plate was added to its respective well in the cell plate. […] After addition of compounds, assay plates were incubated for 5 days at 37° C., 5% CO2, relative humidity >90%.
Cell viability was measured by quantitation of ATP present in the cell cultures, adding […] of Cell Titer Glo® reagent to the cell plates. Luminescence was read in the SpectraMax M5 microplate reader. The concentration of compound inhibiting cell viability by 50% was determined using a 4-parametric fit of the normalized dose response curves.

[1] = system: symmetric di-methyl arginine in Z-138 cells; test: Z-138 Methylation Assay (In Cell Western for symmetric di-methyl arginine and DNA content); format: cell-based; conditions: Homo sapiens, read-out: ICW EC50
Excerpt: [formula] [formula] Where top and bottom are the normally allowed to float, but may be fixed at 100 or 0 respectively in a 3-parameter fit. The Hill Coefficient normally allowed to float but may also be fixed at 1 in a 3-parameter fit. Y is the % inhibition and X is the compound concentration.
RPMI/Glutamax medium, penicillin-streptomycin, heat inactivated fetal bovine serum, and D-PBS were purchased from Life Technologies, Grand Island, N.Y., USA. Odyssey blocking buffer, 800CW goat anti-rabbit IgG (H+L) antibody, and Licor Odyssey infrared scanner were purchased from Licor Biosciences, Lincoln, Nebr., USA. Symmetric di-methyl arginine antibody was purchased from EMD Millipore, Billerica, Mass., USA. 16% Paraformaldehyde was purchased from Electron Microscopy Sciences, Hatfield, Pa., USA.
Cell Treatment, in Cell Western (ICW) for Detection of Symmetric Di-Methyl Arginine and DNA Content.
Z-138 cells were seeded in assay medium at a concentration of 50,000 cells per mL to a 384-well cell culture plate with 50 μL per well. Compound (100 nL) from 384 well source plates was added directly to 384 well cell plate. Plates were incubated at 37° C., 5% CO2 for 96 hours. […] Plates were incubated at room temperature for 30 minutes then incubated at 37° C., 5% CO2 for 5 hours. After the incubation, 40 μL per well of 8% paraformaldehyde in PBS (16% paraformaldahyde was diluted to 8% in PBS) was added to each plate and incubated for 30 minutes. […] Next 30 μL per well of Odyssey blocking buffer were added to each plate and incubated 1 hour at room temperature. Blocking buffer was removed and 20 μL per well of primary antibody was added (symmetric di-methyl arginine diluted 1:100 in Odyssey buffer with 0.1% Tween 20 (v/v)) and plates were incubated overnight (16 hours) at 4° C. Plates were washed 5 times with 100 μL per well of wash buffer. Next 20 μL per well of secondary antibody was added (1:200 800CW goat anti-rabbit IgG (H+L) antibody, 1:1000 DRAQ5 (Biostatus limited) in Odyssey buffer with 0.1% Tween 20 (v/v)) and incubated for 1 hour at room temperature. The plates were washed 5 times with 100 μL per well wash buffer then 1 time with 100 μL per well of water. Plates were allowed to dry at room temperature then imaged on the Licor Odyssey machine which measures integrated intensity at 700 nm and 800 nm wavelengths. Both 700 and 800 channels were scanned.
First, the ratio for each well was determined by:
Each plate included fourteen control wells of DMSO only treatment (minimum inhibition) as well as fourteen control wells for maximum inhibition treated with 3 μM of a reference compound (Background wells). The average of the ratio values for each control type was calculated and used to determine the percent inhibition for each test well in the plate. Reference compound was serially diluted three-fold in DMSO for a total of nine test concentrations, beginning at 3 μM. Percent inhibition was determined and IC50 curves were generated using triplicate wells per concentration of compound. Percent Inhibition=100−

SMILES | EC50 [1] [nM] | EC50 (Z-138 cell line) [nM]
O=C(NCC(O)CN1CCc2ccccc2C1)c1cccc(N2CCNCC2)c1 (centres unmarked) [Compound 35, N-(3-(3,4-dihydroisoquinolin-2(1H)-yl)-2-hydroxypropyl)-3-(piperazin-1-yl)benzamide] | 101 to 1000 | 10000 to 50000
O=C(NCC(O)CN1CCc2ccccc2C1)c1ccnc(NC2CCOCC2)c1 (centres unmarked) [Compound 74] | < 100 | 101 to 1000
O=C(NCC(O)CN1CCc2ccccc2C1)c1cccc(N2CCOCC2)c1 (centres unmarked) [Compound 14, N-(3-(3,4-dihydroisoquinolin-2(1H)-yl)-2-hydroxypropyl)-3-morpholinobenzamide] | 101 to 1000 | 1000 to 10000
O=C(NCC(O)CN1CCc2ccccc2C1)c1cccc(NC2CCNCC2)c1 (centres unmarked) [Compound 94] | 101 to 1000 | 10000 to 50000
Cc1ccc(NC2CCOCC2)cc1C(=O)NCC(O)CN1CCc2ccccc2C1 (centres unmarked) [Compound 95] | 101 to 1000 | 1000 to 10000
CN1CCCC1c1cccc(C(=O)NCC(O)CN2CCc3ccccc3C2)c1 (centres unmarked) [Compound 34, N-(3-(3,4-dihydroisoquinolin-2(1H)-yl)-2-hydroxypropyl)-3-(1-methylpyrrolidin-2-yl) benzamide] | 101 to 1000 | 10000 to 50000
O=C(NC[C@H](O)CN1CCc2ccccc2C1)c1cccc(-c2ccccn2)c1 [Compound 20] | < 100 | 101 to 1000
CC(C)N1CCC(Oc2ccc(C(=O)NCC(O)CN3CCc4ccccc4C3)cc2)CC1 (centres unmarked) [Compound 106] | < 100 | 101 to 1000
O=C(NCC(O)CN1CCc2ccccc2C1)c1cc(F)cc(NC2CCOCC2)c1 (centres unmarked) [Compound 78] | < 100 | 101 to 1000
NCCN1CCN(Cc2cccc(C(=O)NCC(O)CN3CCc4ccccc4C3)c2)CC1 (centres unmarked) [Compound 147] | 101 to 1000 | 10000 to 50000
Cc1ccc(NC2COC2)cc1C(=O)NCC(O)CN1CCc2ccccc2C1 (centres unmarked) [Compound 97] | < 100 | 1000 to 10000
C[C@H]1CC(Nc2cccc(C(=O)NC[C@H](O)CN3CCc4ccccc4C3)c2)CCO1 (some centres unmarked) [Compound 167] | < 100 | 101 to 1000
O=C(NCC(O)CN1CCc2ccccc2C1)c1ccc2nccnc2c1 (centres unmarked) [Compound 85] | 101 to 1000 | 10000 to 50000
O=C(NCC(O)CN1CCc2ccccc2C1)c1ccc(CN2CCOCC2)cc1 (centres unmarked) [Compound 145] | < 100 | 1000 to 10000
CC(=O)N1CCC(Nc2cccc(C(=O)NCC(O)CN3CCc4ccccc4C3)c2)CC1 (centres unmarked) [Compound 124] | < 100 | < 100
O=C(NCC(O)CN1CCc2ccccc2C1)c1cccc(NC2CCOCC2)c1 (centres unmarked) [Compound 16, N-(3-(3,4-dihydroisoquinolin-2(1H)-yl)-2-hydroxypropyl)-3-((tetrahydro-2H-pyran-4-yl)amino)benzamide] | < 100 | 101 to 1000
CN(C)CCCOc1ccc(C(=O)NCC(O)CN2CCc3ccccc3C2)cc1 (centres unmarked) [Compound 178] | < 100 | 1000 to 10000
O=C(NCC(O)CN1CCc2ccccc2C1)c1ccc(NC2CCOC2)cc1 (centres unmarked) [Compound 129] | < 100 | 1000 to 10000
CN(C[C@H](O)CN1CCc2ccccc2C1)C(=O)c1cccc(NC2CCOCC2)c1 [Compound 111] | 101 to 1000 | 1000 to 10000
Cn1nccc1C(=O)NCC(O)CN1CCc2ccccc2C1 (centres unmarked) [Compound 150] | 101 to 1000 | > 20000
Cn1ccc(C(=O)NCC(O)CN2CCc3ccccc3C2)n1 (centres unmarked) [Compound 149] | 1000 to 10000 | > 20000
CNC(=O)CN1CCN(Cc2cccc(C(=O)NCC(O)CN3CCc4ccccc4C3)c2)CC1 (centres unmarked) [Compound 173] | < 100 | 1000 to 10000
O=C(NC[C@@H](O)CN1CCc2ccccc2C1)c1cccc(NC2CCOC2)c1 (some centres unmarked) [Compound 81] | 101 to 1000 | 1000 to 10000
O=C(NCC(O)CN1CCc2ccccc2C1)c1ccc(OC2CCNCC2)cc1 (centres unmarked) [Compound 104] | < 100 | 1000 to 10000
CCOC(=O)CN1CCN(Cc2cccc(C(=O)NCC(O)CN3CCc4ccccc4C3)c2)CC1 (centres unmarked) [Compound 165] | 101 to 1000 | 1000 to 10000
O=C(NCC(O)CN1CCc2ccccc2C1)c1ccc(-c2ccccn2)cc1 (centres unmarked) [Compound 13, N-(3-(3,4-dihydroisoquinolin-2(1H)-yl)-2-hydroxypropyl)-4-(pyridin-2-yl)benzamide] | < 100 | 101 to 1000
COc1ccc2cc(C(=O)NCC(O)CN3CCc4ccccc4C3)ccc2n1 (centres unmarked) [Compound 155] | 1000 to 10000 | > 20000

Further lines, with some results ahead:

EC50 [1] [nM] | SMILES | EC50 (Z-138 cell line) [nM]
101 to 1000 | O=C(NC[C@H](O)CN1CCc2ccccc2C1)c1ccc2c(c1)OCCO2 [Compound 274] | 1000 to 10000
< 100 | O=C(NC[C@H](O)CN1CCc2ccccc2C1)c1ccnc(NC2CCN(CC(F)(F)F)CC2)c1 [Compound 224] | 101 to 1000
101 to 1000 | O=C(NC[C@H](O)CN1CCc2ccccc2C1)c1n[nH]c2ccccc12 [Compound 242] | 1000 to 10000
< 100 | CS(=O)(=O)N1CCC(Nc2cc(C(=O)NC[C@H](O)CN3CCc4ccccc4C3)ccn2)C1 (some centres unmarked) [Compound 227] | 101 to 1000
101 to 1000 | O=C(NC[C@H](O)CN1CCc2ccccc2C1)c1ccnc(NCC2CCNCC2)c1 [Compound 235] | > 20000
< 100 | O=C(NC[C@H](O)CN1CCc2ccccc2C1)c1cc(NC2CCN(CC(F)(F)F)C2)ncn1 (some centres unmarked) [Compound 182] | 1000 to 10000
< 100 | O=C(NC[C@H](O)CN1CCc2ccccc2C1)c1ccc(OC2CCN(Cc3ccncc3)CC2)cc1 [Compound 331] | < 100
< 100 | O=C(NC[C@H](O)CN1CCc2ccccc2C1)c1ccnc(NC2CCOCC2)c1 [Compound 192] | 101 to 1000
< 100 | CN(C)CCOc1cc(C(=O)NC[C@H](O)CN2CCc3ccccc3C2)ccn1 [Compound 234] | 1000 to 10000
101 to 1000 | NCCNc1cc(C(=O)NC[C@H](O)CN2CCc3ccccc3C2)ccn1 [Compound 320] | 1000 to 10000
< 100 | O=C(NC[C@H](O)CN1CCc2ccccc2C1)c1ccnc(NCc2ccccn2)c1 [Compound 191] | 101 to 1000
< 100 | O=C(NC[C@H](O)CN1CCc2ccccc2C1)c1ccnc(NC2CCC2)c1 [Compound 188] | < 100
< 100 | O=C(NC[C@H](O)CN1CCc2ccccc2C1)c1ccnc(NCC2CC2)c1 [Compound 187] | 101 to 1000
< 100 | O=C(NC[C@H](O)CN1CCc2ccccc2C1)c1cncc(NC2CCN(CC(F)(F)F)CC2)c1 [Compound 300] | 1000 to 10000
< 100 | CN1CCC(Oc2cncc(C(=O)NC[C@H](O)CN3CCc4ccccc4C3)c2)CC1 [Compound 288] | < 100
< 100 | CC(=O)N(C)CCN(C)c1cc(C(=O)NC[C@H](O)CN2CCc3ccccc3C2)ccn1 [Compound 291] | 1000 to 10000
< 100 | C[C@@H]1COCCC1Nc1cccc(C(=O)NC[C@H](O)CN2CCc3ccccc3C2)c1 (some centres unmarked) [Compound 212] | 101 to 1000
101 to 1000 | O=C(NC[C@H](O)CN1CCc2ccccc2C1)c1cc2cccc(Cl)c2[nH]1 [Compound 276] | 1000 to 10000
< 100 | CC(=O)N1CCC(Oc2cc(C(=O)NC[C@H](O)CN3CCc4ccccc4C3)ccn2)CC1 [Compound 205] | 101 to 1000
